# Results from US4599337A, “Antiphlogistic/antipyretic/analgesic agents containing theobromine or theophylline derivatives as active ingredient” (Eisai Co., Ltd., priority 1985, dated 1986).
# Read-outs that look alike come from different tables or passages of the source.
# Assays:
# Wistar rats = test: Antiphlogistic activity, carrageenin paw edema; type: in vivo, rat (Wistar); settings: Rattus norvegicus, po, 3 h
# Method: Each test compound of this invention was administered orally to Wistar rats of about 300 g body weight, and 30 minutes later 0.05 ml of a 1% carrageenin solution was injected into a paw of each rat.
# SD male rats [1] = test: Antipyretic activity, dry yeast-induced fever; type: in vivo, rat (SD male); settings: Rattus norvegicus, po, p.o.
# Method: A 2% suspension of dry yeast was injected subcutaneously to SD male rats of 250 to 300 g body weight in an amount of 2 ml/animal to cause a fever, and 4 hours later, the compounds of this invention and control drugs were administered orally. The rectal temperature of each rat was measured periodically, and the dosage of each compound required to reduce the fever by more than 1° C. at the peak of its activity was determined.
# Acute toxicity in mice = test: Acute toxicity in mice; parameters: species or system mouse (ddy male); settings: mouse, in vivo, po
# Method: (§1) Ten mice were used for each dose and morality was determined for 3 days after administration of each test compound of the invention. In the case of the rats, 5 rats were used for each dose and morality was determined 7 days after administrations.
# Acute toxicity in rats = test: Acute toxicity in rats; parameters: species or system rat (SD male); settings: rat, in vivo, po
# Method: as §1
# ddy-strain male mice = test: Analgesic activity, acetic acid writhing method; type: in vivo, mouse (ddy-strain male); settings: p.o.; for Analgesic activity ED50: acetic acid writhing
# Method: (a) Acetic acid writhing method^1
# A 0.7% acetic acid solution was injected intraperitoneally to ddy-strain male mice (20 to 25 g) in an amount of 0.1 ml per 10 g mouse body weight to cause a writhing syndrome typified by stretching of the hind legs. The inhibitory action of each test compound against said symptom was observed as a measure of the analgesic activity of the compound. In the tests, each of the compounds of this invention and each of the control drugs listed below were administered orally to each test animal, and 50 minutes later said acetic acid solution was injected in the manner described above and the total number of typical writhes was determined over a period of 15 minutes.
# SD male rats [2] = test: Analgesic activity, bradykinin-induced pain response; type: in vivo, rat (SD male); settings: p.o.; for Safety margin (LD50 /ED50): Table 2, rats; for Saftety margin (LD50 /ED50) / Analgesic activity ED50: Table 4, rats
# Method: (b) Bradykinin-induced pain response^3,4
# A polyethylene tube was inserted into a common right carotid artery of SD male rats (250 to 350 g) and 0.5 microngram per 0.1 ml of bradykinin was injected into the artery through said tube. Response induced by bradykinin such as flexin of the right forelimb, dextro-rotation of the head and rearing were considered as being indices of pain response, and the analgesic action of each test compound was determined by observing its inhibition of responses such symptoms.
# ddy male mice = settings: p.o., given in Japan National Formulary, 6th Ed. (1982), 4320 min, cited from earlier work
# SD male rats [3] = settings: p.o., given in Japan National Formulary, 6th Ed. (1982), 10080 min, cited from earlier work
# [4] = rats, read-out: effective dose ED for reducing the fever by more than 1° C. at the peak of its activity
# [5] = Table 5, rats, read-out: ED (effective dose for reducing the fever by more than 1° C. when the compound action is at the peak)
structure (smiles),measurement,setting,value
"Cn1cnc2c1c(=O)n(CCCN1CCN(c3ccc(Cl)c(Cl)c3)CC1)c(=O)n2C [Compound A', 1-(3-(4-(3,4-dichlorophenyl)piperazinyl-(1))-n-propyl)theobromine]",ED30,"Wistar rats; Table 7, rats",25 mg/kg
same,ED (fever reduced by more than 1 degC),SD male rats [1]; [4],40 mg/kg
"Cc1cccc(N2CCN(CCn3c(=O)c4c(ncn4C)n(C)c3=O)CC2)c1C [Compound B', 1-(2-(4-(2,3-dimethylphenyl)piperazinyl-(1))-ethyl)theobromine.2HCl]",LD50 at 72 h,"Acute toxicity in mice; Table 3, mice",600 mg/kg
same,LD50 at 168 h,"Acute toxicity in rats; Table 4, rats",≥ 2000 mg/kg
"Cc1cccc(N2CCN(CCCCCn3c(=O)c4c(ncn4C)n(C)c3=O)CC2)c1 [Compound G', 1-(5-(4-m-methylphenylpiperazinyl-(1))-n-pentyl)theobromine.2HCl]",ED30,"Wistar rats; Table 7, rats",25 mg/kg
same,LD50 at 72 h,"Acute toxicity in mice; Table 3, mice",300 mg/kg
same,Safety margin (LD50 /ED50),"ddy-strain male mice; Table 3, mice",22
Cn1c(=O)c2c(ncn2CCCCCN2CCN(c3ccc(Cl)cc3)CC2)n(C)c1=O [Compound B],ED30,"Wistar rats; Table 6, rats",50 mg/kg
same,LD50 at 72 h,"Acute toxicity in mice; Table 1, mice",704 mg/kg
same,ED (fever reduced by more than 1 degC),SD male rats [1]; [5],40 mg/kg
same,LD50 at 168 h,"Acute toxicity in rats; Table 2, rats",353 to 500 mg/kg
Cn1c(=O)c2c(ncn2CCCCN2CCN(c3ccc(Cl)cc3)CC2)n(C)c1=O [Compound D],ED30,"Wistar rats; Table 6, rats",25 mg/kg
same,LD50 at 72 h,"Acute toxicity in mice; Table 1, mice",575 mg/kg
same,ED (fever reduced by more than 1 degC),SD male rats [1]; [5],40 mg/kg
same,LD50 at 168 h,"Acute toxicity in rats; Table 2, rats",505 mg/kg
"COc1ccccc1N1CCN(CCCCn2c(=O)c3c(ncn3C)n(C)c2=O)CC1 [Compound D', 1-(4-(4-o-methoxyphenylpiperazinyl-(1))-n-butyl)theobromine.2HCl]",LD50 at 72 h,"Acute toxicity in mice; Table 3, mice",400 to 800 mg/kg
"OC(CN1CCCCC1)c1cc(-c2ccccc2)on1 (centres unmarked) [Control drug III, 3-(1-hydroxy-2-piperadinoethyl)-5-phenyl-isoxazole]",Safety margin (LD50 /ED50),SD male rats [2],12
same,Saftety margin (LD50 /ED50),SD male rats [2],12
same,Acute toxicity LD50,"ddy male mice; Table 1, mice",612 mg/kg
same,Acute toxicity LD50,"ddy male mice; Table 3, mice",612 mg/kg
same,Safety margin (LD50 /ED50),"ddy-strain male mice; Table 1, mice",5.1
same,Safety margin (LD50 /ED50),"ddy-strain male mice; Table 3, mice",5.1
same,Analgesic activity ED50,"ddy-strain male mice; Table 3, mice",120 mg/kg
same,ED (fever reduced by more than 1 degC),SD male rats [1]; [4],160 mg/kg
same,ED (fever reduced by more than 1 degC),SD male rats [1]; [5],160 mg/kg
same,Acute toxicity LD50,"SD male rats [3]; Table 2, rats","1,978 mg/kg"
same,Acute toxicity LD50,"SD male rats [3]; Table 4, rats","1,978 mg/kg"
Cn1c(=O)c2c(ncn2CCCCN2CCN(c3ccc(F)cc3)CC2)n(C)c1=O [Compound A],ED30,"Wistar rats; Table 6, rats",10 mg/kg
same,LD50 at 72 h,"Acute toxicity in mice; Table 1, mice",344 mg/kg
same,ED (fever reduced by more than 1 degC),SD male rats [1]; [5],10 mg/kg
same,LD50 at 168 h,"Acute toxicity in rats; Table 2, rats",353 to 500 mg/kg
"Cn1cnc2c1c(=O)n(CCCCN1CCN(c3ccc(Cl)c(Cl)c3)CC1)c(=O)n2C [Compound F', 1-(4-(4-(3,4-dichlorophenyl)piperazinyl-(1))-n-butyl)theobromine.2HCl]",LD50 at 72 h,"Acute toxicity in mice; Table 3, mice",400 to 800 mg/kg
"O=C(Cn1c(=O)sc2ccc(Cl)cc21)N1CCN(CCO)CC1 [Control drug II, 4-((5-chloro-2-oxo-3(2H)-benzothiazolyl)acetyl)-1-piperazineethanol]",Safety margin (LD50 /ED50),SD male rats [2],≤ 23
same,Analgesic activity ED50,SD male rats [2],≥ 160 mg/kg
same,Saftety margin (LD50 /ED50),SD male rats [2],≤ 23
same,Acute toxicity LD50,"ddy male mice; Table 1, mice",664 mg/kg
same,Acute toxicity LD50,"ddy male mice; Table 3, mice",564 mg/kg
same,Safety margin (LD50 /ED50),"ddy-strain male mice; Table 1, mice",8.5
same,Safety margin (LD50 /ED50),"ddy-strain male mice; Table 3, mice",8.5
same,Analgesic activity ED50,"ddy-strain male mice; Table 3, mice",66 mg/kg
same,ED (fever reduced by more than 1 degC),SD male rats [1]; [4],40 mg/kg
same,ED (fever reduced by more than 1 degC),SD male rats [1]; [5],40 mg/kg
"COc1cc(C)nc(-n2nc(C)cc2OC)n1 [Control drug I, 4-methoxy-2-(5-methoxy-3-methylpyrazol-1-yl)-6-methylpyrimidine]",Safety margin (LD50 /ED50),SD male rats [2],≤ 3
same,Analgesic activity ED50,SD male rats [2],≥ 160 mg/kg
same,Saftety margin (LD50 /ED50),SD male rats [2],≤ 3
same,Acute toxicity LD50,"ddy male mice; Table 1, mice","1,022 mg/kg"
same,Acute toxicity LD50,"ddy male mice; Table 3, mice",1022 mg/kg
same,Safety margin (LD50 /ED50),"ddy-strain male mice; Table 1, mice",4.3
same,Safety margin (LD50 /ED50),"ddy-strain male mice; Table 3, mice",4.3
same,Analgesic activity ED50,"ddy-strain male mice; Table 3, mice",240 mg/kg
same,ED (fever reduced by more than 1 degC),SD male rats [1]; [4],40 mg/kg
same,ED (fever reduced by more than 1 degC),SD male rats [1]; [5],40 mg/kg
same,Acute toxicity LD50,"SD male rats [3]; Table 2, rats",526 mg/kg
same,Acute toxicity LD50,"SD male rats [3]; Table 4, rats",526 mg/kg
"Cn1cnc2c1c(=O)n(CCCN1CCN(c3ccccc3Cl)CC1)c(=O)n2C [Compound C', 1-(3-(4-o-chlorophenylpiperazinyl-(1))-n-propyl)theobromine.2HCl]",ED30,"Wistar rats; Table 7, rats",10 mg/kg
same,LD50 at 72 h,"Acute toxicity in mice; Table 3, mice",200 mg/kg
"Cn1cnc2c1c(=O)n(CCCCN1CCN(c3ccc(F)cc3)CC1)c(=O)n2C [Compound E', 1-(4-(4-p-fluoropenylpiperazinyl-(1))-n-butyl)theobromine.2HCl]",ED30,"Wistar rats; Table 7, rats",25 mg/kg
same,LD50 at 72 h,"Acute toxicity in mice; Table 3, mice",200 mg/kg
Cc1ccc(N2CCN(CCCn3cnc4c3c(=O)n(C)c(=O)n4C)CC2)cc1C [Compound C],LD50 at 72 h,"Acute toxicity in mice; Table 1, mice",≥ 800 mg/kg
same,ED (fever reduced by more than 1 degC),SD male rats [1]; [5],10 mg/kg
same,LD50 at 168 h,"Acute toxicity in rats; Table 2, rats",770 mg/kg
Cn1c(=O)c2c(ncn2CCCCCN2CCN(c3cccc(C(F)(F)F)c3)CC2)n(C)c1=O [Compound F],ED30,"Wistar rats; Table 6, rats",25 mg/kg
same,LD50 at 72 h,"Acute toxicity in mice; Table 1, mice",≥ 800 mg/kg
same,ED (fever reduced by more than 1 degC),SD male rats [1]; [5],10 mg/kg
same,LD50 at 168 h,"Acute toxicity in rats; Table 2, rats",660 mg/kg
